Data: patent US6376710B2, “Amidine compounds and their use as pesticides” (Sumitomo Chemical Co., Ltd., priority 2000, dated 2002)

Key:
Assay type in all cases: in vivo
[1] = system: German cockroach (Blattella germanica); assay: Test Example 2: treated filter paper with sucrose bait, German cockroach male adults, mortality; details: 144 h
[2] = system: house fly (Musca domeestica); assay: Test Example 3: treated filter paper with sucrose bait, house fly female adults, mortality; details: 24 h
Experimental: On the bottom of a polyethylene cup of 5.5 cm in diameter was placed a filter paper of the same size, to which a water dilution (500 ppm) of each of the formulations obtained from present compounds 1, 2, 3, 4, 5, 6, 7, 8, 9, 10, 11, 12, 13, 14, 15, 16, 17, 18, 19, 20, 21, 25, 26, 27, 28, 29, 32, 33, 34, 35, 36, 37, 38, 39, 40, 41, 42, 43, 44, 45, 47, 51, 52, 53, 54, 55, 60, and 61 according to Formulation Example 1 was added dropwise in an amount of 0.7 ml, and the cup was uniformly charged with about 30 mg of sucrose as a bait. Ten female adults of house fly (Musca domeestica) were set free in each cup, which was then kept covered. After 1 day, their survival was examined to determine the mortality.

[3] = system: common mosquito (Culex pipiens pallens); assay: Test Example 4: treated water, common mosquito final-instar larvae, mortality; details: 192 h

CC(=O)NC(=Nc1c(Cl)cc(C(F)(F)F)cc1Cl)C(F)(F)C(F)(F)F [present compound 61, N-[1-(2,6-dichloro-4-trifluoromethylphenylimino)-2,2,3,3,3-pentafluoropropyl]-acetamide]
100%: mortality at 500 µg/mL [1] | mortality at 500 µg/mL [2] | mortality at 3.5 ppm [3]
